Assays:
[1] = molecular target: T1, Plasma kallikrein (Homo sapiens, UniProt P03952); experiment: Inhibition of purified human plasma kallikrein using H-D-Pro-Phe-Arg-pNA.2HCl as substrate measured after 3 mins by microplate reader analysis
[2] = molecular target: T1, Plasma kallikrein; experiment: Inhibition of endogenous human plasma kallikrein using Z-Phe-Arg-AMC.HCl as substrate measured after 5 mins by microplate reader analysis
[3] = Cmax in rat at 5 mg/kg, po; type: ADME, organism-based; design: route oral, dose 5 mg/kg; details: in vivo
[4] = AUC in rat at 5 mg/kg, po after 12 hrs; type: ADME, organism-based; design: route oral, time 12 hrs, dose 5 mg/kg; details: in vivo

T1 sequence (P03952 20-390 limits assumed): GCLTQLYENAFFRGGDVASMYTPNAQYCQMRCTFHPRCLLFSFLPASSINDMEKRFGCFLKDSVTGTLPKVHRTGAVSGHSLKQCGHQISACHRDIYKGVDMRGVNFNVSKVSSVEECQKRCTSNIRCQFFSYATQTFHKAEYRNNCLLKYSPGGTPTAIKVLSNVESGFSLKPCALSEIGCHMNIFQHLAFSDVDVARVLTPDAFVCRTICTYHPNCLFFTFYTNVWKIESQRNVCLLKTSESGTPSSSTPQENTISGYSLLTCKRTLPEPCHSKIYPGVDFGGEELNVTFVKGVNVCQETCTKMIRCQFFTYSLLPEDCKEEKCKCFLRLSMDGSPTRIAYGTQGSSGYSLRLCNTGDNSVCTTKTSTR
T1 sequence (P03952 391-638 limits assumed): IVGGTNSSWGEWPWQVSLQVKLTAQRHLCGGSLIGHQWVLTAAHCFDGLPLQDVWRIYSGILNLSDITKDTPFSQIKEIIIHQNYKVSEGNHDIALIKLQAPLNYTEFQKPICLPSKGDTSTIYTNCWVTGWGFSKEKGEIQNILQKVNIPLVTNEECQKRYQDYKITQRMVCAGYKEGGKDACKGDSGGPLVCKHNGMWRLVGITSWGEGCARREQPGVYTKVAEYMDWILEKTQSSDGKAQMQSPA

Row | IC50 [1] [µM] | IC50 [2] [µM] | Cmax [3] [ng/mL] | AUC at 12 h [4] [ng·h/mL] | SMILES
1 | 0.651 |  |  |  | NCc1cccc(-n2nc(C(F)(F)F)cc2C(=O)Nc2ccc(C(OCC3CC3)c3ccccc3)cc2F)c1 (centres undefined)
2 | 0.01 | 0.01 | 58 | 128 | NCc1cccc(-n2nc(C(F)(F)F)cc2C(=O)Nc2cc(C(NCC3CC3)c3cccnc3)ccc2F)c1 (centres undefined)
3 | 0.1 | > 1 |  |  | NCc1cccc(-n2nc(C(F)(F)F)cc2C(=O)Nc2cc(F)cc(C(OCC3CC3)c3ccccc3)c2)c1 (centres undefined)
4 | 0.0072 | 0.019 |  |  | N#Cc1ccc(C(NCC2CC2)c2ccc(F)c(NC(=O)c3cc(C(F)(F)F)nn3-c3cccc(CN)c3)c2)cc1 (centres undefined)
5 | 0.134 | 1.28 |  |  | CCOC(c1ccccc1)c1ccc(F)c(NC(=O)c2cc(C(F)(F)F)nn2-c2cccc(CN)c2)c1 (centres undefined)

Row | SMILES | IC50 [1] [µM] | IC50 [2] [µM] | Cmax [3] [ng/mL] | AUC at 12 h [4] [ng·h/mL]
6 | CS(=O)(=O)c1cccc(-c2ccc(NC(=O)c3cc(C(F)(F)F)nn3-c3cccc(CN)c3)c(F)c2)c1 | 1.23 |  |  | 
7 | NCc1cccc(-n2nc(C(F)(F)F)cc2C(=O)Nc2ccc(-c3ccc(C(N)=O)cc3)cc2F)c1 | 0.395 |  |  | 
8 | NCc1cccc(-n2ccc(C(F)(F)F)n2)c1 | 1000 |  |  | 
